In patent US20250295607A1, “OPHTHALMIC COMPOSITIONS FOR TREATMENT OF OCULAR SURFACE DAMAGE AND SYMPTOMS OF DRYNESS” (Novaliq GmbH, priority 2018, published 2025):

Tests used:
[1] = system: subjects with Dry Eye Disease; assay: Ocular Surface Disease Index (OSDI) questionnaire; format: in vivo, human
Excerpt: The Ocular Surface Disease Index (OSDI©)) is perhaps the most frequently used survey instrument for the assessment of ocular surface disease severity in dry eye research. The OSDIC was created by the Outcomes Research Group at Allergan Inc in order to quickly assess the symptoms of ocular irritation in dry eye disease and how they affect functioning related to vision. This 12-item questionnaire assesses dry eye symptoms and the effects it has on vision-related function in the past week of the patient's life. The questionnaire has 3 subscales: ocular symptoms, vision-related function, and environmental triggers. Patients rate their responses on a 0 to 4 scale with 0 corresponding to “none of the time” and 4 corresponding to “all of the time.” A final score is calculated which ranges from 0 to 100.
The questions assess the following: dry eye symptoms experienced by the patient within past week: sensitivity to light, gritty sensation, pain or sore eyes, blurriness, and poor vision; vision-related function, in terms of problems in the past week with regards to: reading, driving at night, working on a computer or bank machine, watching television; and in terms of environmental factors or triggers i.e. discomfort experienced in the past week during: windy conditions, places with low humidity, and areas with air condition.
Subtotals are obtained for all the questions, as well as the total number of questions answered. The OSDI index is assessed based on a scale of 0 to 100, with higher scores representing a greater disability. The OSDI index is calculated from the sum of the scores multiplied by a factor of 25, over the total number of questions answered. Higher scores represent a greater degree/severity and impact of dry eye disease.

[2] = system: cornea of subjects with Dry Eye Disease; assay: Corneal fluorescein staining, NEI grading scale (ocular surface damage); format: in vivo, human
Excerpt: A Wratten #12 yellow filter will be used to enhance the ability to grade fluorescein staining. The staining will be graded with the NEI (National Eye Institute) Grading
Scale. Only the staining of the cornea will be graded. Digital images of fluorescein staining may be taken for digital analysis.
Based on the NEI/Industry Workshop Scale, the grade of the ocular surface damage for each eye is scored for each of the five regions of the cornea based on measuring fluorescein uptake.
Grade 0 will be specified when no fluorescein staining is present. Grades 1, 2 and 3 define an increasing density and degree of observed fluorescein staining, The maximum total score for each eye is 15.

[3] = system: subjects with Dry Eye Disease; assay: Phase 2 multi-center, randomized, double-masked, saline-controlled clinical study (NCT03333057), signs and symptoms overall; format: in vivo, human
Protocol: A Phase 2, Multi-Center, Randomized, Double-Masked, Saline-Controlled Study to Evaluate the Effect of 1-Perfluorohexyloctane (NOV03) at two different dosing regimens on signs and symptoms of Dry Eye Disease (DED) was conducted. The study was performed at 11 investigational cites in the United States. The study was reviewed and approved by the respective ethics committees and registered at www.clinicaltrials.gov (NCT03333057).
The primary objective for this study is to evaluate the efficacy, safety, and tolerability of an ophthalmic composition essentially consisting of 1-perfluorohexyloctane (NOV03) at two different dosing regimens (QID, BID) compared to saline solution in subjects with Dry Eye Disease. The secondary objectives are to compare the effect of an ophthalmic composition essentially consisting of 1-perfluorohexyloctane (NOV03) and saline solution at two different dosing regimens on signs and symptoms of Dry Eye Disease and to evaluate the pharmacokinetics after 57 days dosing.
Subjects must: • a. Be at least 18 years of age. • b. Provide written informed consent. • c. Have a subject reported history of Dry Eye Disease in both eyes for at least 6 months prior to Visit 0. • d. […] Have Meibomian Gland Dysfunction (MGD) defined as MGD score≥3 (secretion of 5 central glands on lower eyelid will be evaluated, each will be scored from 0-3; 0=normal, 1=thick/yellow, whitish, particulate 2=paste; 3=none/occluded; total score will range from 0-15) at Visit 0 and Visit 1. • h. […]
Screening (Visit 0); Within 14 days before Visit 1 Subjects will be required to sign an Informed Consent before completing any study related procedure. At the screening visit, vital signs will be assessed and the subject will give blood for safety laboratory tests. […]
Baseline Visit Day 1 (Visit 1): On Day 1 (Visit 1), eligible subjects will be evaluated for baseline signs and symptoms of dry eye disease. […]
Visits 2-4; Subjects will return to the clinic on Day 15±1 (Visit 2), 29±2 (Visit 3), and 57±2 (Visit 4) to be evaluated for signs and symptoms of dry eye disease. […]

[4] = system: subjects with Dry Eye Disease; assay: Visual Analog Scale (VAS) Eye Dryness Score questionnaire; format: in vivo, human; conditions: QID
Protocol: An Eye Dryness Score was determined based on a 10-item questionnaire provided to subjects, where subjects were asked to rate their ocular symptoms (both eyes simultaneously) due to ocular dryness by placing a vertical mark on a horizontal line scale to indicate the level of discomfort (0% corresponds to “no dryness” and 100% corresponds to “maximal dryness”). Subjects are asked about the severity of dry eye symptoms, namely the symptoms of dryness representing the first 8 questions of the VAS questionnaire corresponding to: dryness (corresponding to the first question in the VAS questionnaire, and also referred to in the text and in the graphs as “severity of dryness”; with the terms “dryness” and “severity of dryness” being used interchangeably herein as a dry eye symptom designation, sticky feeling, burning/stinging, foreign body sensation, itching, blurred vision, sensitivity to light, and pain.
Subjects are also asked about their awareness of their dry eye symptoms and frequency of their dry eye symptoms, namely questions 9-10 of the VAS questionnaire. The rating for these questions is indicated by the subject by placing a vertical mark on a horizontal line scale to indicate the percentage of time of awareness or frequency, with 0% corresponding to ‘never’ and 100% corresponding to ‘all of the time’.

Density = format: physicochemical
[5] = QID, significant also at 4 weeks, 8 weeks
[6] = QID, after 2 weeks of treatment

CCCCCCCCC(F)(F)C(F)(F)C(F)(F)C(F)(F)C(F)(F)C(F)(F)F [NOV03, 1-perfluorohexyloctane]
OSDI blurred vision ([1]; QID vs saline): clear improvements
OSDI eyes feeling gritty ([1]; QID vs saline): clear improvements
OSDI painful or sore eyes ([1]; QID vs saline): clear improvements
OSDI poor vision ([1]; QID vs saline): clear improvements
OSDI problems with driving at night ([1]; QID vs saline): clear improvements
OSDI problems with watching TV ([1]; QID vs saline): clear improvements
OSDI reading problems ([1]; QID vs saline): clear improvements
OSDI sensitivity to light ([1]; QID vs saline): clear improvements
OSDI uncomfortable in areas that are air conditions ([1]; QID vs saline): clear improvements
OSDI uncomfortable in areas with low humidity ([1]; QID vs saline): clear improvements
OSDI uncomfortable under windy conditions ([1]; QID vs saline): clear improvements
OSDI problems with working with a computer or bank machine (ATM) ([1]; QID, at the 4 and 8-week timepoint, higher data variability): did not improve
total OSDI score ([1]; QID, over the placebo group): highly statistical significant improvement
start of treatment effect relating to the OSDI symptoms [1, 5]: 2 weeks
reduction of ocular surface damage, superior corneal region ([2]; QID vs saline): did not show such clear improvement
reduction of ocular surface damage, central corneal region ([2]; QID vs saline, 2, 4, 8 weeks): clear improvements
reduction of ocular surface damage, inferior corneal region ([2]; QID vs saline, 2, 4, 8 weeks): clear improvements
reduction of ocular surface damage, nasal corneal region ([2]; QID vs saline, 2, 4, 8 weeks): clear improvements
reduction of ocular surface damage, temporal corneal region ([2]; QID vs saline, 2, 4, 8 weeks): clear improvements
patients with improvement of ≥1 grade in central corneal staining [2, 6]: 39%
patients with improvement of ≥3 grades in total corneal staining [2, 6]: 32%
patients with improvement of ≥1 grade in central corneal staining ([2]; QID, after 8 weeks): 50%
patients with improvement of ≥3 grades in total corneal staining ([2]; QID, after 8 weeks): 42%
total corneal fluorescein staining (primary efficacy endpoint), reduction of ocular surface damage of the total corneal region ([2]; QID, at 8 weeks, vs saline): met its prespecified primary efficacy endpoint
start of treatment effect relating to the signs [2, 5]: 2 weeks
signs and symptoms of dry eye disease ([3]; 4 times daily, single drop of 10-12 μl, highly symptomatic DED population with significant MGD involvement): relevant and statistically significant improvements
benefit in patient population by baseline characteristics ([3]; QID, OSDI between 38 and 72, TBUT between 2.1 and 3.9 seconds or MGD score between 4.0 and 11.2, and/or total corneal fluorescein staining between 4.8 and 9.2): beneficial
benefit in patients meeting one or more baseline criteria ([3]; QID, TBUT equal or lower than 3, OSDI higher than 57, total corneal fluorescein staining between 5 and 9, MGD score equal or higher than 7, Schirmer I Test greater or equal than 10 mm): especially benefitted
VAS pain ([4]; at the 4 week timepoint, higher variability): did not improve
VAS awareness of dryness ([4]; over the placebo group): highly statistical significant improvement
VAS blurred vision ([4]; over the placebo group): highly statistical significant improvement
VAS burning/stinging ([4]; over the placebo group): highly statistical significant improvement
VAS foreign body sensation ([4]; over the placebo group): highly statistical significant improvement
VAS frequency of dryness ([4]; over the placebo group): highly statistical significant improvement
VAS itching ([4]; over the placebo group): highly statistical significant improvement
VAS sensitivity to light ([4]; over the placebo group): highly statistical significant improvement
VAS severity of dryness ([4]; over the placebo group): highly statistical significant improvement
VAS sticky feeling ([4]; over the placebo group): highly statistical significant improvement
VAS severity of dryness in patients with Schirmer I Test of greater or equal than 10 mm ([4]; subpopulation with normal tear production, DED associated with MGD, 8 weeks): significant change from baseline
start of treatment effect relating to the VAS symptoms ([4]; significant also at 4 weeks, 8 weeks): 2 weeks
density (Density): 1.35 g/mL
density (d) (Density): 1.35 g/mL
